Test results reported in publication PMC12365235, “Molecular mechanisms of thiazide-like diuretics-mediated inhibition of the human Na-Cl cotransporter” (Nature Communications, 2025).
Several values for one entry are separate records, joined by “and”; a condition that tells them apart may be missing. Identical values can stand only once.

Molecular target: T1, hNCC(WT) (Homo sapiens, UniProt P55017)
T1 construct: expressed in transfected cells
T1 sequence (P55017 1-1021): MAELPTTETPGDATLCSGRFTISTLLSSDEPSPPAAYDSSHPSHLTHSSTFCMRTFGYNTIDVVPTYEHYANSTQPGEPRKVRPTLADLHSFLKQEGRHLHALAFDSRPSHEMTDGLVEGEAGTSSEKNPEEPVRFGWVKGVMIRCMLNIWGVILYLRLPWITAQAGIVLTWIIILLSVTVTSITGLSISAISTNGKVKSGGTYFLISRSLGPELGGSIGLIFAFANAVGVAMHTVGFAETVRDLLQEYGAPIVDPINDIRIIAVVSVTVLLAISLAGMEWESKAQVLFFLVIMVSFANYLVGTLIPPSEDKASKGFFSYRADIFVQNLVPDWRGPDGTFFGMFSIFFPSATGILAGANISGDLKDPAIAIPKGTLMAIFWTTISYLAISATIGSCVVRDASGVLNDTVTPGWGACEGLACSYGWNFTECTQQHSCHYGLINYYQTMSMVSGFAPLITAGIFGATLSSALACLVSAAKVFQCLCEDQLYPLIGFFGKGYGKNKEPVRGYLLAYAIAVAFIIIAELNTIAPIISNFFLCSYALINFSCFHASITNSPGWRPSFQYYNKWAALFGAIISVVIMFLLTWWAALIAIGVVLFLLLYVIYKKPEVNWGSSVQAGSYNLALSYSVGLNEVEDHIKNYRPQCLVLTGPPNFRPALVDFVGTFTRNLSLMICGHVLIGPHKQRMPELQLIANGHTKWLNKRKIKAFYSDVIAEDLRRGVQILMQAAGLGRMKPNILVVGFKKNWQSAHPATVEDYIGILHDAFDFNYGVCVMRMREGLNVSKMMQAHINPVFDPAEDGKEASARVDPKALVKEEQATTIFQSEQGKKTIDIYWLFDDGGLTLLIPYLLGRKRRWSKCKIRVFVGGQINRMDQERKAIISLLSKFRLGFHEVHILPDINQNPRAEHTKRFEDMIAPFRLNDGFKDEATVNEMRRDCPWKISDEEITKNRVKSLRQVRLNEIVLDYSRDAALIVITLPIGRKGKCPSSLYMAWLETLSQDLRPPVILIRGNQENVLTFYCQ
Test: 125I- uptake assay, HEK293S cells stably expressing hNCC(WT)
Type: cell-based
Conditions: for apparent affinity compared to polythiazide (times lower): hNCC(WT), Supplementary Fig. 2d
Protocol: HEK293S cell lines, cultured in 293 Freestyle medium (Life Technologies; plus 10% fetal bovine serum), stably expressing hNCC and its variants were generated following published protocols. Cells were transfected using Lipofectamine 3000 (Invitrogen) with a pSBbi-RP-based plasmid containing hNCC or its variants and the SB100X vector. Puromycin (2 μg/mL; Gemini Bio-Products) was used for selection of stable cell lines.
To prepare for the uptake experiment, cells were plated at 0.5 × 10^6 cells/well in 24-well plates one day in advance. To activate NCC, cells were treated with a chloride-free hypotonic solution composed of 67.5 mM sodium-, 2.5 mM potassium-, 0.25 mM magnesium-, and 0.25 mM calcium-gluconate, as well as 7.5 mM HEPES pH 7.4 (buffered using Tris) at 37 °C for 10 min[72]. After the activation step, the experiments were carried out at room temperature. Ten minutes before the start of ^125I^− uptake, 70 μM Bumetanide (Thermo Scientific Chemicals) and 100 μM 4,4′-diisothiocyanatostilbene-2,2′-disulfonic acid (DIDS; Sigma) were added to suppress background iodide uptake activity. Indicated thiazide diuretics were also added to the indicated concentrations 10 min before the start of ^125I^− uptake. The original buffer was switched to an uptake buffer composed of 135 mM Na-gluconate, 5 mM K-gluconate, 1 mM Mg-gluconate, 1 mM Ca-gluconate, 70 μM bumetanide, 100 μM DIDS, 1 mM NaI, 0.25 μCi/ml Na^125I (American Radiolabeled Chemicals, Inc.), and 15 mM HEPES pH 7.4 (buffered using Tris), in the presence or absence of thiazide diuretics to initiate ^125I^− uptake. The ^125I^− uptake process lasted 1 h and was stopped by two rapid washes using ice-cold 110 mM MgCl2. Cells lysed using 1% sodium dodecyl sulfate (SDS) were analyzed by scintillation counting.
To calculate the fold change of the half-maximal inhibitory concentration (IC50) between hNCC(WT) and different hNCC variants, individual dose-response curves were normalized first using the smallest mean and the value of the lowest concentration as 0% and 100%, respectively. The normalized data were then fitted using the “EC50 shift” nonlinear regression in GraphPad Prism 10 with the shared EC50Control assigned to be the IC50 of hNCC(WT). The following constraints were used in the EC50 shift analysis. The EC50Control was set to be shared across all curves under analysis and constrained to be greater than 0. The EC50Ratio was constrained to be greater than 0. The bottom, top, and HillSlope were constrained to be 0, 100, and −1, respectively. For Fig. 1f, g and Supplementary Fig. 2d, GraphPad Prism 10 was used to perform curve fitting and IC50 calculation for normalized data using y = 100/(1 + (x/IC50)).

[1] = thiazide-sensitive iodide uptake, HEK293S stable cells, 1 mM extracellular iodide

| Compound | apparent affinity compared to polythiazide (times lower) | IC50 [1] | IC50 (as quoted in reviewer comment on the earlier manuscript version) [nM] |
| --- | --- | --- | --- |
| NS(=O)(=O)c1cc(C2(O)NC(=O)c3ccccc32)ccc1Cl (centres unmarked) [chlorthalidone] | ~ 40 times | 23 nM |  |
| CC1Cc2ccccc2N1NC(=O)c1ccc(Cl)c(S(N)(=O)=O)c1 (centres unmarked) [indapamide] | ~ 16 times |  | 9.3 |
| CN1C(CSCC(F)(F)F)Nc2cc(Cl)c(S(N)(=O)=O)cc2S1(=O)=O (centres unmarked) [polythiazide] |  | 0.58 nM and ~0.5 nM |  |
